# Test results reported in publication PMC3944524, “Antimicrobial Activity of the Marine Alkaloids, Clathrodin and Oroidin, and Their Synthetic Analogues” (Marine Drugs, 2014).
# Experiments:
# [1] = system: Escherichia coli (ATCC 25922); test: Broth microdilution antimicrobial assay, Escherichia coli; format: cell-based
# Method: (§1) Clinical control strains of Enterococcus faecalis (Gram-positive, ATCC 29212), Staphylococcus aureus (Gram-positive, ATCC 25923), Escherichia coli (Gram-negative, ATCC 25922) and a fungal strain, Candida albicans (ATCC 90028), were obtained from Microbiologics Inc. (St. Cloud, MN, USA) and used for the antimicrobial screening. Bacterial strains were grown on Mueller Hinton II agar (MHA, Becton Dickinson, Franklin Lakes, NJ, USA) […] Mueller Hinton II broth (MHB, Becton Dickinson, Franklin Lakes, NJ, USA) and the Candida strain on Sabouraud dextrose agar (SDA, Becton Dickinson, Franklin Lakes, NJ, USA) plates. Media were prepared in MilliQ water, according to the manufacturer's instructions, and autoclaved at 121 °C for 15 min. […] The Candida strain was grown on SDA plates at 28 °C for 18-24 h and suspended into sterile 0.9% saline for the assay. Antimicrobial assays were performed by the broth microdilution method following the guidelines of the Clinical and Laboratory Standards Institute (CLSI) and European Committee on Antimicrobial Susceptibility Testing (EUCAST). […] The Candida suspension was prepared in sterile 0.9% saline solution, and the suspension was diluted in RPMI-1640 media (with L-glutamine, without NaHCO3 and supplemented with 2% glucose and 0.165 M MOPS, buffered to pH 7; Lonza, Basel, Switzerland) to yield a final inoculum of 2.5 × 10^3 CFU/mL in the assay. Assays were carried out in clear 96-well microtiter plates and initiated by dispensing an equal volume of microbial suspension and sample solution diluted into the assay medium. The plates were incubated for 24 h at 37 °C (for Candida, the incubation was at 28 °C for 48 h) with agitation. […] The antimicrobial activity of the samples was calculated from the absorbance values by comparing to untreated controls and expressed as the percentage inhibition of growth. Reference antibiotics were used as positive controls on every assay plate (see Figure 2 for details). […] MIC50 values were determined from the dose-response results by sigmoidal curve fitting with Origin software (OriginLab, Corp., Wellesley Hills, MA, USA).
# [2] = system: Candida albicans (ATCC 90028); test: Broth microdilution antifungal assay, Candida albicans; format: cell-based; settings: 50 µM, 48 h, n = 3, hit threshold >80%
# Method: Clinical control strains of Enterococcus faecalis (Gram-positive, ATCC 29212), Staphylococcus aureus (Gram-positive, ATCC 25923), Escherichia coli (Gram-negative, ATCC 25922) and a fungal strain, Candida albicans (ATCC 90028), were obtained from Microbiologics Inc. (St. Cloud, MN, USA) and used for the antimicrobial screening. Bacterial strains were grown on Mueller Hinton II agar (MHA, Becton Dickinson, Franklin Lakes, NJ, USA) slants and Mueller Hinton II broth (MHB, Becton Dickinson, Franklin Lakes, NJ, USA) and the Candida strain on Sabouraud dextrose agar (SDA, Becton Dickinson, Franklin Lakes, NJ, USA) plates. Media were prepared in MilliQ water, according to the manufacturer’s instructions, and autoclaved at 121 °C for 15 min. Prior to the assay, bacterial suspensions were prepared in MHB from fresh slant cultures and incubated at 37 °C for 16–20 h at 100 rpm. The Candida strain was grown on SDA plates at 28 °C for 18–24 h and suspended into sterile 0.9% saline for the assay.
# Antimicrobial assays were performed by the broth microdilution method following the guidelines of the Clinical and Laboratory Standards Institute (CLSI) and European Committee on Antimicrobial Susceptibility Testing (EUCAST). Bacterial suspensions were prepared as described above and diluted with MHB to obtain a final inoculum of 5 × 10^5 colony-forming units (CFU)/milliliters in the assay (determined on the basis of absorbance values at 620 nm previously calibrated against plate counts). The Candida suspension was prepared in sterile 0.9% saline solution, and the suspension was diluted in RPMI-1640 media (with L-glutamine, without NaHCO3 and supplemented with 2% glucose and 0.165 M MOPS, buffered to pH 7; Lonza, Basel, Switzerland) to yield a final inoculum of 2.5 × 10^3 CFU/mL in the assay. Assays were carried out in clear 96-well microtiter plates and initiated by dispensing an equal volume of microbial suspension and sample solution diluted into the assay medium. The plates were incubated for 24 h at 37 °C (for Candida, the incubation was at 28 °C for 48 h) with agitation. Absorbance was measured at 620 nm with a plate reader at 0, 4 and 24 h with the bacteria and at 0, 24 and 48 h with Candida. The antimicrobial activity of the samples was calculated from the absorbance values by comparing to untreated controls and expressed as the percentage inhibition of growth. Reference antibiotics were used as positive controls on every assay plate (see Figure 2 for details). […] MIC50 values were determined from the dose-response results by sigmoidal curve fitting with Origin software (OriginLab, Corp., Wellesley Hills, MA, USA).
# [3] = system: Enterococcus faecalis (ATCC 29212); test: Broth microdilution antimicrobial assay, Enterococcus faecalis; format: cell-based; settings: for inhibition at 50 µM / inhibition of growth, primary screen: n = 3, hit threshold >80%, 50 µM; for inhibition at 50 µM: read-out: inhibition of growth, primary screen
# Method: as §1
# [4] = system: Staphylococcus aureus (ATCC 25923); test: Broth microdilution antimicrobial assay, Staphylococcus aureus; format: cell-based; settings: for inhibition at 50 µM / MIC90 / MIC50: Staphylococcus aureus; for inhibition at 50 µM / inhibition of growth, primary screen: n = 3, hit threshold >80%, 50 µM; for inhibition at 50 µM: read-out: inhibition of growth, primary screen; for SI (selectivity index): S. aureus MIC50 vs Huh-7 cytotoxicity IC50; for MIC50: sigmoidal curve fitting
# Method: as §1
# [5] = Mammalian cell cytotoxicity, ATP assay (CellTiter-Glo); format: cell-based, human; settings: human, Huh-7 cells, ATP assay, 24 h exposure, average of two dose-response experiments
# Method: (§2) Huh-7 cells (originating from human hepatocellular carcinoma) were kindly provided by Prof. Ralf Bartenschlager (University of Heidelberg, Heidelberg, Germany). […] The cells were incubated at 37 °C in a humidified atmosphere with 5% CO2. The effect of the most promising compounds on the metabolic activity of Huh-7 hepatocytes was assessed by intracellular ATP quantitation (Promega’s CellTiter-Glo Cell Viability Assay, Madison, WI, USA). In brief, cells were seeded at 20,000 cells/well on white-walled 96-well microplates (ViewPlate, PerkinElmer Inc., Wellesley, MA, USA) and incubated at 37 °C, 5% CO2 and 95% humidity overnight and then exposed to the compounds for 24 h. Following the exposure, cells were washed with 100 µL PBS, and 50 µL of fresh assay media and 50 µL of the CellTiter-Glo reagent were added into the wells. After 2 min of shaking and 10 min incubation at rt, luminometric signal was measured using a Varioskan Flash plate reader (Thermo Fisher Scientific, Vantaa, Finland). […] The IC50 values were calculated by fitting the data into sigmoidal dose-response curves with the Origin software.
# Huh-7 cells = test: Mammalian cell cytotoxicity, ATP assay (CellTiter-Glo); format: cell-based, human
# Method: as §2
# [6] = Enterococcus faecalis, ATCC29212, 24 h
# [7] = 50 µM, 24 h, n = 3, hit threshold >80%
# [8] = ATCC25923, S. aureus ATCC 25923, 24 h
Compound,"inhibition at 50 µM [3, 6] [%]","inhibition at 50 µM ([4]; ATCC25923, 24 h) [%]","inhibition of growth, primary screen [1, 7]",IC50 at 24 h [5] [µM],"inhibition of growth, primary screen [2]",SI (selectivity index) [4],"MIC90 ([4]; ATCC25923, 24 h) [µM]","MIC50 [4, 8] [µM]",melting point [°C],"inhibition of growth, primary screen ([3]; 24 h)","inhibition of growth, primary screen ([4]; 24 h)",also measured
"Nc1nc(/C=C/CNC(=O)c2ccc[nH]2)c[nH]1 [Compound 2a, (E)-N-(3-(2-amino-1H-imidazol-4-yl)allyl)-1H-pyrrole-2-carboxamide]",< 80,< 80,,,,,,,,,,"inhibition at 50 µM ([1]; Escherichia coli, ATCC25922, 50 µM, 24 h, n = 3, hit threshold >80%, read-out: inhibition of growth, primary screen): < 80%; inhibition at 50 µM ([2]; Candida albicans, ATCC90028, read-out: inhibition of growth, primary screen): < 80%"
"Nc1nc(/C=C/CNC(=O)c2cc(Br)c(Br)[nH]2)c[nH]1 [Compound 2b, (E)-N-(3-(2-amino-1H-imidazol-4-yl)allyl)-4,5-dibromo-1H-pyrrole-2-carboxamide]",~50,> 90,inactive,> 100,inactive,>3.3,100,30.6,,,,
"CC(C)(C)OC(=O)n1cc(-c2cccc(NC(=O)c3cc4cc(Cl)ccc4[nH]3)c2)nc1N [Compound 5i, tert-Butyl 2-amino-4-(3-(5-chloro-1H-indole-2-carboxamido)phenyl)-1H-imidazole-1-carboxylate]",,,,> 100,,>8.6,75,11.7,188 to 190,,,cytotoxicity at highest tested concentration (Huh-7 cells; 100 µM): non-cytotoxicity
Nc1nc(-c2cccc(NC(=O)c3c[nH]c4ccccc34)c2)c[nH]1 [Compound 6e],,,inactive,,inactive,,,,,inactive,inactive,
"Cl.Nc1nc(-c2cccc(NC(=O)c3cc4cc(OCc5ccccc5)ccc4[nH]3)c2)c[nH]1 [Compound 6h, 2-Amino-4-(3-(5-(benzyloxy)-1H-indole-2-carboxamido)phenyl)-1H-imidazol-3-ium chloride]",,,active,21.2,no activity,2.9,12.5,7.3,175 to 178,active,active,"SI (selectivity index) ([1]; E. coli MIC50 vs Huh-7 cytotoxicity IC50): 0.7; MIC90 ([1]; Escherichia coli, ATCC25922, 24 h): 50 µM; MIC50 ([1]; Escherichia coli, ATCC25922, E. coli ATCC 25922, 24 h, sigmoidal curve fitting): 30.4 µM; SI (selectivity index) ([3]; E. faecalis MIC50 vs Huh-7 cytotoxicity IC50): 2.7; MIC90 [3, 6]: 12.5 µM; MIC90 ([3]; Enterococcus faecalis, ATCC29212, E. faecalis ATCC 29212, 24 h): 5.7 µg/mL; MIC50 ([3]; Enterococcus faecalis, ATCC29212, E. faecalis ATCC 29212, 24 h, sigmoidal curve fitting): 8 µM; MIC90 [4, 8]: 5.7 µg/mL"
Polymyxin-B sulfate [reference compound],,,,,,,,,,,,"average cytotoxicity (Huh-7 cells; 15,000 IU/mL, positive control, 24 h): 88%"
